The values that follow come from PMC8213057, “Targeting ALK2: An Open Science Approach to Developing Therapeutics for the Treatment of Diffuse Intrinsic Pontine Glioma” (Journal of Medicinal Chemistry, 2020).

Each structure is given as a SMILES string. Values joined by “and” are separate entries in the source; they are usually repeats but may differ in a detail not shown here. Identical values can stand only once.

A short description of data set [1]: human liver microsomal stability assay. The class given is in vitro ADME. The settings on record: human, microsomes, pH 7.4, human liver microsomes, 60 min, 37 °C, read-out: HLM % Remaining at 1h.
A further data set addresses T1, TNIK (Homo sapiens, UniProt Q9UKE5).
T1 construct: purchased Reaction Biology Corporation
The experiment in a line: 375-member kinase panel. Type of data set: biochemical. The settings on record: Run 1, Run 2; for % enzyme activity: 1 μM.

For a further data set, the target named is AURORA B (Homo sapiens, UniProt Q96GD4). To be noted: 1 μM; Run 1, Run 2.
Sequence of AURORA B (Q96GD4 whole entry): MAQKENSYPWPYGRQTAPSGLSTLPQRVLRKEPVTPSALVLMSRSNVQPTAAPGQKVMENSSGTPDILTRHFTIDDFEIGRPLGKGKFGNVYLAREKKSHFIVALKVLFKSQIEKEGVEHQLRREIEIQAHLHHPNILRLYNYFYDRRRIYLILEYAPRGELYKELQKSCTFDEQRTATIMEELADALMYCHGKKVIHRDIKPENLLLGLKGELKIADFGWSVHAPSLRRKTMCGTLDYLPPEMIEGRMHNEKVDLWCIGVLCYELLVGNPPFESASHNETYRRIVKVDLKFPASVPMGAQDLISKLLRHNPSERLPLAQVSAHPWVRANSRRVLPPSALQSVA
The next data set has as its target CLK2 (Homo sapiens, UniProt P49760). To be noted: 1 μM; Run 1, Run 2.
The next data set deals with EPHA4 (Homo sapiens, UniProt P54764). To be noted: 1 μM; Run 1, Run 2.
Sequence of EPHA4 (P54764 20-986): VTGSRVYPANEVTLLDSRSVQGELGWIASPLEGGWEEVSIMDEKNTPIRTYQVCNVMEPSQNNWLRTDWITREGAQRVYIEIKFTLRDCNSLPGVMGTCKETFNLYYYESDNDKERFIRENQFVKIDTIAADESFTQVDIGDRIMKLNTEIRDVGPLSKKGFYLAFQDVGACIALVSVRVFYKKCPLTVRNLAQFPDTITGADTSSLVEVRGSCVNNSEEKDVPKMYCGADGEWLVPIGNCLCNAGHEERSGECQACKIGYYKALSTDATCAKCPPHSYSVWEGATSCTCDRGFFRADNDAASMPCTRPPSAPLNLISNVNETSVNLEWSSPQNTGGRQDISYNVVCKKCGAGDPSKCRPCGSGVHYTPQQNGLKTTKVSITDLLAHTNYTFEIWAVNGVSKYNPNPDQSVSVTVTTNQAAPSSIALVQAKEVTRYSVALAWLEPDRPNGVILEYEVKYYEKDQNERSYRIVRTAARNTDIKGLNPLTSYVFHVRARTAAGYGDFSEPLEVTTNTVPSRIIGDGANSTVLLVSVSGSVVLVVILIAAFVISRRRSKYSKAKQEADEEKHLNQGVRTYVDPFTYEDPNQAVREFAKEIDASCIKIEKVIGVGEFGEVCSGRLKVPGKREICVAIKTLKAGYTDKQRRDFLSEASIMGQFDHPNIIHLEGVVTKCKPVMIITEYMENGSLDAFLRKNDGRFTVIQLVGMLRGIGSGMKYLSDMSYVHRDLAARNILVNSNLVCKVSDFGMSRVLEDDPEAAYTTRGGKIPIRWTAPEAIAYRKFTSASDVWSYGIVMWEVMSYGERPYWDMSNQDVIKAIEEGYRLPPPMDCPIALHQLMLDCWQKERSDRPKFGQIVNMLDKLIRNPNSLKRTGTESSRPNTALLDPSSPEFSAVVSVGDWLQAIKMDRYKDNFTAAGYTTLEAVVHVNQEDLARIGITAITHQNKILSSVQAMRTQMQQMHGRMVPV
In another data set the target is FGR (Homo sapiens, UniProt P09769). The settings on record: 1 μM; Run 1, Run 2.
Sequence of FGR (P09769 whole entry): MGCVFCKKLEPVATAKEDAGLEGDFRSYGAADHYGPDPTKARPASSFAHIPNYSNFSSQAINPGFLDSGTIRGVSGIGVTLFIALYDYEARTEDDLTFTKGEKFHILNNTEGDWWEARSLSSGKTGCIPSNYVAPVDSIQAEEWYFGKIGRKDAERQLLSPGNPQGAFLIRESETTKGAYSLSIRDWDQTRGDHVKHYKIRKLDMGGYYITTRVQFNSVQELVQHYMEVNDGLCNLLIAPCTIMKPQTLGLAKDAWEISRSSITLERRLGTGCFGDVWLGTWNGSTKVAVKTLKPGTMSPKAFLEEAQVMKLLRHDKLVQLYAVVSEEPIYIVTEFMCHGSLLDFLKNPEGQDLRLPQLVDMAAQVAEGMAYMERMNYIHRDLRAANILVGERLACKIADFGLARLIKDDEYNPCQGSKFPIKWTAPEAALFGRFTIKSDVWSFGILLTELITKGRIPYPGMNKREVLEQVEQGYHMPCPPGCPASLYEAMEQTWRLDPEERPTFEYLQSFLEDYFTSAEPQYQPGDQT
The target of another data set is LCK (Homo sapiens, UniProt P06239). The settings on record: 1 μM; Run 1, Run 2.
The next data set has as its target LIMK2 (Homo sapiens, UniProt P53671). To be noted: 1 μM; Run 1, Run 2.
A further data set concerns the target LYN B (Homo sapiens, UniProt P07948). To be noted: 1 μM; Run 1, Run 2.
The target of the next data set is MEKK1 (Homo sapiens, UniProt Q13233). The settings on record: 1 μM; Run 1, Run 2.
The target in a further data set is T2, SNARK/NUAK2 (Homo sapiens, UniProt Q9H093).
T2 sequence (Q9H093 1-628): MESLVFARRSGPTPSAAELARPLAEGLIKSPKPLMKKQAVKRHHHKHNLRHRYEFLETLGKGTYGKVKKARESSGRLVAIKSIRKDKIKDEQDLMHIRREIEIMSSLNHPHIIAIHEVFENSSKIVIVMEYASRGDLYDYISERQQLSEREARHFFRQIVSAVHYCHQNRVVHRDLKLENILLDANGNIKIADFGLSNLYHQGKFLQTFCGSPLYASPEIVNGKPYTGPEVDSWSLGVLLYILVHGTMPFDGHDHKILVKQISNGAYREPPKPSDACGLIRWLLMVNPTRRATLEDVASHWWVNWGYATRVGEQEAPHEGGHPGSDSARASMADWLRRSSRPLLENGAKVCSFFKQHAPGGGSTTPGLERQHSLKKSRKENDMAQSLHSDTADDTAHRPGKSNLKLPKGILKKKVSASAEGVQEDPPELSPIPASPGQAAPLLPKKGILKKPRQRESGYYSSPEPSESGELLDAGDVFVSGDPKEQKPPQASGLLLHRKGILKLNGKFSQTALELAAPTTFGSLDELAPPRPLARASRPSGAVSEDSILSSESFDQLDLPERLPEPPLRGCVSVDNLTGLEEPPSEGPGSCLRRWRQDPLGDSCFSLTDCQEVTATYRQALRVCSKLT
The settings on record: 1 μM; Run 1, Run 2.

Another data set concerns the target FRK/PTK5 (Homo sapiens, UniProt P42685). Put plainly: biochemical. The settings on record: read-out: % enzyme activity, 1 μM; Run 1, Run 2.
The next data set concerns the target T3, GRK7 (Homo sapiens, UniProt Q8WTQ7).
T3 sequence (Q8WTQ7 1-553): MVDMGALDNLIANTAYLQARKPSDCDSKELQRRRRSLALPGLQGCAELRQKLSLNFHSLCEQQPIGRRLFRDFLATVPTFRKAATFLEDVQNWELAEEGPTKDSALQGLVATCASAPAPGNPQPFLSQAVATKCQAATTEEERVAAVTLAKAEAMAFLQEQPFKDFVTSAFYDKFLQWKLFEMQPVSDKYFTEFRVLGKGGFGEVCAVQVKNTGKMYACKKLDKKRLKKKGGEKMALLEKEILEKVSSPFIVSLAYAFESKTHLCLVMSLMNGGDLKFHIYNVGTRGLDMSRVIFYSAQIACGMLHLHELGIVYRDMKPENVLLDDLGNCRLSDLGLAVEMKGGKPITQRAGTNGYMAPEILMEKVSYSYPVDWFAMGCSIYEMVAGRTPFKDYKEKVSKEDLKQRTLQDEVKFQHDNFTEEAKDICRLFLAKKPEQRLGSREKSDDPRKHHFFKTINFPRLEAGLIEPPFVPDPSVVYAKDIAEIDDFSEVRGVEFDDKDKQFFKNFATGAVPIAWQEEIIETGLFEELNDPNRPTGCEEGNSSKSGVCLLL
The experiment in a line: biochemical. To be noted: read-out: % enzyme activity, 1 μM; Run 1, Run 2.

The next data set deals with T4, PBK/TOPK (Homo sapiens, UniProt Q96KB5).
T4 sequence (Q96KB5 1-322): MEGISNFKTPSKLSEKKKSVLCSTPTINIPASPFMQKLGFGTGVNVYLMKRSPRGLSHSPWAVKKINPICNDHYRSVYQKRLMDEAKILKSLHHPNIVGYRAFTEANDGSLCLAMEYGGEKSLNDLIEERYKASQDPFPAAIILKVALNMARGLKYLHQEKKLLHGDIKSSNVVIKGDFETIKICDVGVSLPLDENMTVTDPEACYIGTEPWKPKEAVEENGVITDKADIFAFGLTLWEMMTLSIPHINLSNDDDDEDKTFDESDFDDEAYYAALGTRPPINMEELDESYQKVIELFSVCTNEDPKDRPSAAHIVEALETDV
Put plainly: biochemical. The settings on record: read-out: % enzyme activity, 1 μM; Run 1, Run 2.

Another data set concerns the target PLK2 (Homo sapiens, UniProt Q9NYY3). The experiment in a line: biochemical. The settings on record: read-out: % enzyme activity, 1 μM; Run 1, Run 2.
The target in the next data set is RAF1 (Homo sapiens, UniProt P04049). The experiment in a line: biochemical. To be noted: read-out: % enzyme activity, 1 μM; Run 1, Run 2.
Another data set addresses T5, ULK3 (Homo sapiens, UniProt Q6PHR2).
T5 sequence (Q6PHR2 1-472): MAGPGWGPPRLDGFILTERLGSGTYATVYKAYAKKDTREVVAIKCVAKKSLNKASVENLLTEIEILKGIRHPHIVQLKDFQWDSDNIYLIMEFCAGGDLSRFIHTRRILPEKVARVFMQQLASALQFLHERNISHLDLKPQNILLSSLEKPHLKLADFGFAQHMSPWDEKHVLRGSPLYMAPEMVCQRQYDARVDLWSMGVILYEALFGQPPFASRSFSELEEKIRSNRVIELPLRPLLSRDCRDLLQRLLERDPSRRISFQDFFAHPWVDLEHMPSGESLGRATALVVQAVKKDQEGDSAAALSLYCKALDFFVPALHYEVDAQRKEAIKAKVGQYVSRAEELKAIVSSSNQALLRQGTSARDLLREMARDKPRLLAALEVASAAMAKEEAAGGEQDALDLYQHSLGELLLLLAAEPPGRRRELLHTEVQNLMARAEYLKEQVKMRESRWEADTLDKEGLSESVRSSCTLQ
Put plainly: biochemical. The settings on record: read-out: % enzyme activity, 1 μM; Run 1, Run 2.

T1 sequence (Q9UKE5 whole entry): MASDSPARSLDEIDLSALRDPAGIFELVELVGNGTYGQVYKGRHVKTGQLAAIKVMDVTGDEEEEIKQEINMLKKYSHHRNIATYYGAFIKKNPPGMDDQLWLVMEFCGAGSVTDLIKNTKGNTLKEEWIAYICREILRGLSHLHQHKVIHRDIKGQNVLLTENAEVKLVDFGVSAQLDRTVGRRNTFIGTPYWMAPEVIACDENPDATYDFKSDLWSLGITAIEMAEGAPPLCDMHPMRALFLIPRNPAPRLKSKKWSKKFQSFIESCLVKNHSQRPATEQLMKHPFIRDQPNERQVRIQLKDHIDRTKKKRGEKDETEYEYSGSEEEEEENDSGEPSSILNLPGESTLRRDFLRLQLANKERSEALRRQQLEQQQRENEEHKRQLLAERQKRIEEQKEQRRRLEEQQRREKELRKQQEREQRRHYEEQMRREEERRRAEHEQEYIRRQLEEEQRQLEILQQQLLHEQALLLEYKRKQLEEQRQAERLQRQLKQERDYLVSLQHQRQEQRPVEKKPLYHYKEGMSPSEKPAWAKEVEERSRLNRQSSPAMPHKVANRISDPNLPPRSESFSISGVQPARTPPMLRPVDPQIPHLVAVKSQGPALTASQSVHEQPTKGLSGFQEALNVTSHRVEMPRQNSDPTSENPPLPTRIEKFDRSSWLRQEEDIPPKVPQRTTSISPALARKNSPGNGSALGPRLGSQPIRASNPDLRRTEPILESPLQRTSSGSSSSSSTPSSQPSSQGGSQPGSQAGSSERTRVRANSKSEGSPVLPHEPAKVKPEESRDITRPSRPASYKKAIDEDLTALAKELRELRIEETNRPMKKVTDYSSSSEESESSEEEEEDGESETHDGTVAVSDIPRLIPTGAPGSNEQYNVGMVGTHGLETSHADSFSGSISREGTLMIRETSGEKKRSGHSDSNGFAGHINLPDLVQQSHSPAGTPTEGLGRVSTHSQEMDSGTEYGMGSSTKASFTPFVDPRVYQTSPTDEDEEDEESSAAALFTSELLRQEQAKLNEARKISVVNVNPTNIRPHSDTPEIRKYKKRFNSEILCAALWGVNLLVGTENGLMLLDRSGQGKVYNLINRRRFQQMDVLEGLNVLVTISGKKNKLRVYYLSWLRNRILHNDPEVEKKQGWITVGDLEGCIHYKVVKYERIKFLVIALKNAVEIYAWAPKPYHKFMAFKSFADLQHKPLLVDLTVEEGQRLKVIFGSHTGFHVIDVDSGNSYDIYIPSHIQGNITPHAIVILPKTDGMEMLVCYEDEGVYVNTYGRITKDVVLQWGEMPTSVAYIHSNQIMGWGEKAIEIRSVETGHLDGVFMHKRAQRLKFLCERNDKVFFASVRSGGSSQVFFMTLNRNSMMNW
Sequence of PLK2 (Q9NYY3 whole entry): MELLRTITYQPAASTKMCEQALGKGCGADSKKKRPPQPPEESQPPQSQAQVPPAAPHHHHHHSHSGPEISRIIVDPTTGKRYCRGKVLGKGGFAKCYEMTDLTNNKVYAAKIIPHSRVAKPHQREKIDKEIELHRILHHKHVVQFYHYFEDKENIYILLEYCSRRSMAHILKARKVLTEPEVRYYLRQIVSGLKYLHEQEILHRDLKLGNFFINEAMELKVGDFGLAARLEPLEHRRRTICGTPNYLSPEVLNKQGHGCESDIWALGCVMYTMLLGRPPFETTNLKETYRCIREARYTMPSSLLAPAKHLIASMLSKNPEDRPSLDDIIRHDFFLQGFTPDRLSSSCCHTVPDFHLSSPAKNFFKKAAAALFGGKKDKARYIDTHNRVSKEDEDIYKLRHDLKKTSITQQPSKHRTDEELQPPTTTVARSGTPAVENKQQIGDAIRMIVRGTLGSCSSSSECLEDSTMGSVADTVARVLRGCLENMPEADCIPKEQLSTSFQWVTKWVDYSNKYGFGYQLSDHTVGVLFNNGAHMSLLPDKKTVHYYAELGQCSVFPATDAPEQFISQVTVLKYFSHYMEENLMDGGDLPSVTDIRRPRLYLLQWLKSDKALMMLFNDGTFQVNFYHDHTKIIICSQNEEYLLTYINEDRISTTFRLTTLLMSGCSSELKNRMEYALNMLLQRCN
Sequence of FRK/PTK5 (P42685 whole entry): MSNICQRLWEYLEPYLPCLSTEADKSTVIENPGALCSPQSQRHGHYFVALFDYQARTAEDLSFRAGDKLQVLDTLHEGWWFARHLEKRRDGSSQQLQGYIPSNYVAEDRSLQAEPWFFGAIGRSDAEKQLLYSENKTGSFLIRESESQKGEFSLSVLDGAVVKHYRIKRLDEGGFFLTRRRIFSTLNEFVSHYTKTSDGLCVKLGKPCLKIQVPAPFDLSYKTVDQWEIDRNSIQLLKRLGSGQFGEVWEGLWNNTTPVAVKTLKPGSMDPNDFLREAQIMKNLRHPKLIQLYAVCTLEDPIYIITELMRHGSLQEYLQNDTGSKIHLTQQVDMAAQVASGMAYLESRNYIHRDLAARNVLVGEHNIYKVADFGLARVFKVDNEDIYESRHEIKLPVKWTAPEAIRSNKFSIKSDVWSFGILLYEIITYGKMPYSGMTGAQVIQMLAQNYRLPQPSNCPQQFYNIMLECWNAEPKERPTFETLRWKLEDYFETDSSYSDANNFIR
Sequence of CLK2 (P49760 whole entry): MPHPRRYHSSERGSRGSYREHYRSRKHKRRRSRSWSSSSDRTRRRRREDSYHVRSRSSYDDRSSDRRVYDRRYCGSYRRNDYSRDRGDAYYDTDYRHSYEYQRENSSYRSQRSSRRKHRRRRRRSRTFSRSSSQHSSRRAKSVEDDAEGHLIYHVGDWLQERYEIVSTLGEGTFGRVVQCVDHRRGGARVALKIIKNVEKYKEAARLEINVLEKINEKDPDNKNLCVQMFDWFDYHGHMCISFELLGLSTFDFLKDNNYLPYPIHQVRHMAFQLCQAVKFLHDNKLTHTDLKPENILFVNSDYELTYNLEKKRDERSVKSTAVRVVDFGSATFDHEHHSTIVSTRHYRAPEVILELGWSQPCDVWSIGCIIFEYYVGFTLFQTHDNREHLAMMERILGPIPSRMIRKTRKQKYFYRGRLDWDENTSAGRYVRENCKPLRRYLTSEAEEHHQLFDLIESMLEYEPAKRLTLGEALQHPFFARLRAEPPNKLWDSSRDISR

With `COc1cc(-c2cncc(-c3ccc(N4CCN(C)CC4)cc3)c2C)cc(F)c1C(N)=O` [Compound 26a, 2-Fluoro-6-methoxy-4-(4-methyl-5-(4-(4-methylpiperazin-1-yl)phenyl)pyridin-3-yl)benzamide], the share remaining (as a rule, what is left of the initial amount, in per cent) at 1 h, 1 μM in data set [1] was determined as 78%. For the same molecule, the “% enzyme activity” value at TNIK is -0.77% and -2.62%; on AURORA B it was 100.58%; at CLK2, 91.71%; at EPHA4 it was 91.81%; at FGR, 74.69%; on LCK, 92.53%. Also, the “% enzyme activity” value at LIMK2 is given as 99.63%; on LYN B, 96.56%; on MEKK1, 92.92%; on SNARK/NUAK2 it was 93.71%. Moreover, the remaining activity at 1 µM on FRK/PTK5 was 101%; on GRK7 it was 95.1%; on PBK/TOPK, 91.8%; on PLK2, 98.8%; on RAF1 it was 78.7%; on ULK3, 91.5%.

On to `COc1cc(-c2cncc(-c3ccc(N4C[C@@H](C)N(C)[C@@H](C)C4)cc3)c2C)cc(F)c1C(N)=O` [Compound 26c, 2-Fluoro-6-methoxy-4-(4-methyl-5-(4-((3R,5S)-3,4,5-trimethylpiperazin-1-yl)phenyl)pyridin-3-yl)benzamide], for which the fraction remaining at 1 h, 1 μM in [1] was determined as 47.5%. Also, the “% enzyme activity” value on TNIK worked out at 3.92%; on AURORA B, 104.62%; at CLK2, 85.73%; on EPHA4 it was 98.76%; on FGR, 86.35%; on LCK, 98.93%. Further, the “% enzyme activity” value is recorded as 95.75% on LIMK2, 97.80% at LYN B, 97.31% on MEKK1 and 94.38% at SNARK/NUAK2. Moreover, the remaining activity at 1 µM on TNIK (read-out: % enzyme activity, 1 μM) came out at 4.85%; on FRK/PTK5 it was 98.2%; at GRK7 it was 91.8%; on PBK/TOPK it was 103%; on PLK2, 103%; at RAF1, 85.5%. In addition, at ULK3, the remaining activity at 1 µM is 98.8%.
